# Reference: patent US7015309B1 (The Wistar Institute of Anatomy and Biology, priority 1999, dated 2006)
# “Also recorded” adds a separate entry of the source. Like-named read-outs stand apart in the source and are kept apart here. Non-standard residues stand in square brackets, D forms with d. Residues, ends and D or L forms follow the SMILES beside them. No end group written: not given here. Dap = NC[C@H](N)C(=O)O
# Columns and labels:
# [1] = 25% aqueous pooled human serum (Sigma), human 2, approximately 1 month old; settings: 37° C., up to 8 hours
# [2] = 25% aqueous pooled mouse serum (Sigma); settings: 37° C., up to 8 hours
# [3] = 25% aqueous pooled human serum (Sigma), human 1, approximately 1 year old; settings: 37° C., up to 8 hours
# [4] = test system: Agrobacterium tumefaciens
# Description: (§1) Growth inhibition assays were performed using the peptides of Example 1 and the Gram positive microorganisms Micrococcus luteus and Bacillus megaterium, and the Gram negative microorganisms, Escherichia coli D22, Agrobacterium tumefaciens, and Salmonella typhimurium. Anti-bacterial assays were performed in sterilized 96-well plates (Nunc F96 microtiter plates) with a final volume of 100 μl as described in Bulet (1996), cited above. Briefly, 90 μl of a suspension of a midlogarithmic phase bacterial culture at an initial 600 nm UV absorbence of 0.001 in Luria-Bertani rich nutrient medium was added to 10 μl of serially diluted peptides in sterilized water. The final peptide concentrations ranged between 0.15 and 80 μM. The plates were incubated at 30° C. for 24 hours with gentle shaking, and the growth inhibition was measured by recording the increase of the UV absorbence at 600 nm on an SLT Labinstruments 400 ATC microplate reader. The experiments were conducted over a 7-month period.
# Salmonella typhimurium = test system: Salmonella typhimurium
# Description: as §1
# Micrococcus luteus = test system: Micrococcus luteus
# Description: as §1
# Bacillus megaterium = test system: Bacillus megaterium
# Description: as §1
# [5] = mouse serum, 45-minute digestion, MALDI-MS peak height
# Description: Owing to the fact that the use of diluted serum increases peptide recovery as well as retards the reaction kinetics to a manageable rate, the experiments were conducted using 25% aqueous sera.
# For serum stability studies, 10 μl of an aqueous peptide stock solution containing about 0.8 mg/ml peptide was added to 200 μl 25% aqueous pooled mouse or human serum (Sigma, St. Louis, Mo.), according to the process described in M. F. Powell et al, Pharmacol Res, 10: 1268–1273 (1993). The peptide-serum mixture was thermostated at 37° C. After 0 minutes, 45 minutes, 2 hours and 4 hours, three samples of each peptide were taken and precipitated by the addition of 40 μl 15% aqueous trichloroacetic acid. The samples were stored at 4° C. for 20 minutes and centrifuged. The peptides and some remaining serum proteins were recovered in the supernatant after the trichloroacetic acid precipitation. The supernatants were immediately frozen on dry-ice and 220 μl of each were analyzed on RP-HPLC. A mouse serum and two different batches of the same SIGMA catalog number of human sera (human 1, approximately 1 year old, and human 2, approximately 1 month old) were also used.
# The lyophilized samples were redissolved in 0.1 aqueous TFA and submitted for matrix assisted laser desorption/ionization (MALDI-MS).
# The missing residues are indicated (e.g—C2 means that the C-terminal two residues are cleaved off). […] In Table 4, the relative amounts of the degradation products are estimated based on the MALDI-MS peak heights. 0=not detected; 1=very weak (below 5000), 2=weak (5–10000), 3=medium (10–15000), 4=strong (15000-uncleaved molecular ion at 25–30000), 5=very strong (above uncleaved molecular ion).
# [6] = 25% sera, data not shown
# [7] = 45-minute digestion
# Escherichia coli D22 = settings: read-out: IC50 in μM against Escherichia coli D22; 30° C., 24 hours; for Peptide 22 original assay (a)
# Description: as §1
# [8] = human 1 serum (approximately 1 year old)
# [9] = human 2 serum (approximately 1 month old)
# [10] = read-out: IC50 in μM against Agrobacterium tumefaciens, 30° C., 24 hours, for Peptide 22 original assay (a)
# [11] = read-out: IC50 in μM against Salmonella typhimurium, 30° C., 24 hours, for Peptide 22 original assay (a)
# [12] = read-out: IC50 in μM against Micrococcus luteus, 30° C., 24 hours, for Peptide 22 original assay (a)
# [13] = read-out: IC50 in μM against Bacillus megaterium, 30° C., 24 hours, for Peptide 22 original assay (a)
compound,measurement,setting,value
VDKGSYLPRPTPPRPIYNRN,cleaved bond,[1],"Arg19-Asn20, first_seen, 45 minute; also recorded: Asn18-Arg19, 45-minute"
same,cleaved bond,[2],"Arg19-Asn20, first_seen, 45 minute; also recorded: Asn18-Arg19, 45-minute"
same,cleaved bond,[3],"Arg19-Asn20, first_seen, 45 minute; also recorded: Asn18-Arg19, 45-minute; also recorded: Ser5-Tyr6, 45-minute"
same,fragment found,[3],"−C3, 45-minute; also recorded: −C6, 45-minute"
CC[C@H](C)[C@H](NC(=O)[C@@H]1CCCN1C(=O)[C@H](CCCNC(=N)N)NC(=O)[C@@H]1CCCN1C(=O)[C@@H]1CCCN1C(=O)[C@@H](NC(=O)[C@@H]1CCCN1C(=O)[C@H](CCCNC(=N)N)NC(=O)[C@@H]1CCCN1C(=O)[C@H](CC(C)C)NC(=O)[C@H](Cc1ccc(O)cc1)NC(=O)[C@H](CO)NC(=O)CNC(=O)[C@H](CCCCN)NC(=O)[C@H](CC(=O)O)NC(=O)[C@@H](NC(=O)[C@H](CCCNC(=N)N)NC(C)=O)C(C)C)[C@@H](C)O)C(=O)N[C@@H](Cc1ccc(O)cc1)C(=O)N[C@@H](CC(N)=O)C(=O)N[C@@H](CCCNC(=N)N)C(=O)N[C@@H](CNC(C)=O)C(N)=O [Peptide 22] (Ac-RVDKGSYLPRPTPPRPIYNR[Dap](Ac)-NH2),IC50,[4],0.6 µM
same,IC50,[4]; 24 h,2.5 µM
same,IC50,Salmonella typhimurium; murium,2.5 µM
same,IC50,"Salmonella typhimurium; murium, 24 h",2.5 µM
same,IC50,Micrococcus luteus,10 µM
same,IC50,Micrococcus luteus; 24 h,10 µM
same,IC50,Bacillus megaterium; Bacillus,80 µM
same,IC50,"Bacillus megaterium; Bacillus, 24 h",40 µM
same,"Degradation product −C1, relative amount",[5],0
same,"Degradation product −C2, relative amount",[5],2 (2=weak (5–10000))
same,"Degradation product −C3, relative amount",[5],0
same,"Degradation product −C6, relative amount",[5],0
same,"Degradation product −N3, C2, relative amount",[5],0
same,"Degradation product −N3, relative amount",[5],0
same,"Degradation product −N5, C2, relative amount",[5],0
same,"Degradation product −N5, relative amount",[5],0
same,degradation rate compared with other peptides (in words),[6],degrades considerably faster than either Peptide 1 or Peptide 21
same,"Degradation product −C1, relative amount",[7]; [8],0
same,"Degradation product −C2, relative amount",[7]; [8],5
same,"Degradation product −C3, relative amount",[7]; [8],3 (3=medium (10–15000))
same,"Degradation product −C6, relative amount",[7]; [8],0
same,"Degradation product −N3, C2, relative amount",[7]; [8],1 (1=very weak (below 5000))
same,"Degradation product −N3, relative amount",[7]; [8],2 (2=weak (5–10000))
same,"Degradation product −N5, C2, relative amount",[7]; [8],2 (2=weak (5–10000))
same,"Degradation product −N5, relative amount",[7]; [8],3 (3=medium (10–15000))
same,"Degradation product −C1, relative amount",[7]; [9],0
same,"Degradation product −C2, relative amount",[7]; [9],5
same,"Degradation product −C3, relative amount",[7]; [9],0
same,"Degradation product −C6, relative amount",[7]; [9],0
same,"Degradation product −N3, C2, relative amount",[7]; [9],0
same,"Degradation product −N3, relative amount",[7]; [9],2 (2=weak (5–10000))
same,"Degradation product −N5, C2, relative amount",[7]; [9],0
same,"Degradation product −N5, relative amount",[7]; [9],1 (1=very weak (below 5000))
VDKGSYLPRPTPPRPIYN [Peptide 25],IC50,[4]; [10],> 80 µM
same,IC50,Salmonella typhimurium; [11],> 80 µM
same,IC50,Micrococcus luteus; [12],> 80 µM
same,IC50,Escherichia coli D22,> 80 µM
same,IC50,Bacillus megaterium; [13],> 80 µM
"VDKGSYLPRPTPPRPIYNRN [Peptide 2, reference compound]",IC50,[4]; [10],0.3 µM
same,IC50,Salmonella typhimurium; [11],2.5 µM
same,IC50,Micrococcus luteus; [12],> 80 µM
same,IC50,Escherichia coli D22,0.3 µM
same,IC50,Bacillus megaterium; [13],40 µM
